SMILES strings stand for the structures. Structures can show the parent of a compound that is named as a salt. Where two headings read alike, the source gives them in different places.

Assay [1] has as its target recombinant human SOS1 polypeptide (amino acids 560-1049) (Homo sapiens (Human), UniProt Q07889). Description: biochemical. It counts as binding. Conditions: read-out: Ki, Inhibition of Labeled Tracer Binding to SOS1.
In another assay the test system is pERK in MKN1 cells. Description: cells. It counts as cell-based. The note with it: Homo sapiens.
[2] abbreviates: HTRF displacement, Cy5 labelled tracer, Morrison equation for competitive binding.
The mark [3] stands for this setting: MKN-1, pERK inhibition, In-Cell Western, MKN1 or H358 cells (Table 24 does not say which), 0.5-1 hour incubation, read-out: IC50.

recombinant human SOS1 polypeptide (amino acids 560-1049), sequence (Q07889 560-1049): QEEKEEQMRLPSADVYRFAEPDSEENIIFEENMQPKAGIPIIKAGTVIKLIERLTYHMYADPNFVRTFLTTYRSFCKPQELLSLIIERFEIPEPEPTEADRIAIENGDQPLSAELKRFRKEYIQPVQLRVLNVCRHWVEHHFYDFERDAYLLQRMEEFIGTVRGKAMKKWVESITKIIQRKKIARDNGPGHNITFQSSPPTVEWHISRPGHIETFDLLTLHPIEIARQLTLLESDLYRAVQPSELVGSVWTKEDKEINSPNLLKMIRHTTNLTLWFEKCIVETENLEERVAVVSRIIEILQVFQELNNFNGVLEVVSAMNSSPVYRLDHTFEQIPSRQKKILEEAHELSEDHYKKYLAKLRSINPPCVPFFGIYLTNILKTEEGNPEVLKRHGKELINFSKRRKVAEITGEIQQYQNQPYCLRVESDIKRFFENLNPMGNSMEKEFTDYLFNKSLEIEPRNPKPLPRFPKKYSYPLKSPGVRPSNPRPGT

Take `Cc1c([C@@H](C)Nc2nnc(C)c3ccc(OC[C@@H]4CCCN4)cc23)cccc1C(F)(F)F` [Example 7-6, 4-methyl-N-((R)-1-(2-methyl-3-(trifluoromethyl)phenyl)ethyl)-7-(((S)-pyrrolidin-2-yl)methoxy)phthalazin-1-amine]: in assay [1] (setting [2]), the Ki came to 1.41 nM. In addition, the IC50 with pERK in MKN1 cells (setting [3]) came out at 110 nM.
Turning to `Cc1c([C@@H](C)Nc2nncc3ccc(N4CCn5cc(C(F)(F)F)nc5C4C)cc23)cccc1C(F)(F)F` (stereo partly drawn) [Example 1-47, 7-(8-methyl-2-(trifluoromethyl)-5,6-dihydroimidazo[1,2-a]pyrazin-7(8H)-yl)-N-((R)-1-(2-methyl-3-(trifluoromethyl)phenyl)ethyl)phthalazin-1-amine], in assay [1] (setting [2]), the Ki came to 2.08 nM. Also, the IC50 in the assay with pERK in MKN1 cells (setting [3]) worked out at 349 nM.
For `Cc1cn2c(n1)C(C)N(c1ccc3cnnc(N[C@H](C)c4cccc(C(F)(F)F)c4C)c3c1)CC2` (stereo partly drawn) [Example 1-44, 7-(2,8-dimethyl-5,6-dihydroimidazo[1,2-a]pyrazin-7(8H)-yl)-N-((R)-1-(2-methyl-3-(trifluoromethyl)phenyl)ethyl)phthalazin-1-amine], in that order: 0.42 nM and 235 nM.
Turning to `Cc1c([C@@H](C)Nc2nnc(CN(C)C)c3ccc(N4CCOCC4)cc23)cccc1C(F)(F)F` [Example 14-1, (R)-4-((dimethylamino)methyl)-N-(1-(2-methyl-3-(trifluoromethyl)phenyl)ethyl)-7-morpholinophthalazin-1-amine], the Ki in assay [1] worked out at 8.97 nM. Also, the IC50 with pERK in MKN1 cells (MKN-1, pERK inhibition, In-Cell Western, MKN1 or H358 cells (Table 24 does not say which), 0.5-1 hour incubation) came to 68 nM.
In the case of `Cc1nnc(N[C@H](C)c2cc(N)cc(C(F)(F)F)n2)c2cc(N3C[C@H]4CC[C@@H]3CN4C)ccc12` [Example 16-5, N-((R)-1-(4-amino-6-(trifluoromethyl)pyridin-2-yl)ethyl)-4-methyl-7-((1R, 4R)-5-methyl-2,5-diazabicyclo[2.2.2]octan-2-yl)phthalazin-1-amine], the Ki in assay [1] (setting [2]) is 5.5 nM. For the same compound, in the assay on pERK in MKN1 cells (setting [3]), the IC50 amounted to 71 nM.
As to `Cc1c([C@@H](C)Nc2nncc3ccc(N4CCn5ncnc5C4)cc23)cccc1C(F)(F)F` [Example 1-25, (R)-7-(5,6-dihydro-[1,2,4]triazolo[1,5-a]pyrazin-7(8H)-yl)-N-(1-(2-methyl-3-(trifluoromethyl)phenyl)ethyl)phthalazin-1-amine], the Ki in assay [1] (setting [2]) was 0.95 nM. Also, in the assay with pERK in MKN1 cells (setting [3]), the IC50 amounted to 47 nM.
Turning to `Cc1c([C@@H](C)Nc2nnc(C)c3cnc(N4C[C@H]5CC[C@@H]4CN5C)cc23)cccc1C(F)(F)F` [Example 12-26], the Ki in assay [1] (setting [2]) was 0.45 nM. In addition, the IC50 in the assay on pERK in MKN1 cells (setting [3]) is 27 nM.
For `Cc1c([C@@H](C)Nc2nnc(C)c3ccc(N4C[C@@H]5CC[C@H]4CN5C)cc23)cccc1C(F)(F)F` [Example 10-31, 4-methyl-N-((R)-1-(2-methyl-3-(trifluoromethyl)phenyl)ethyl)-7-((1S,4S)-5-methyl-2,5-diazabicyclo[2.2.2]octan-2-yl)phthalazin-1-amine], in that order: 0.35 nM and 3580 nM.
Consider `Cc1c(C#N)cccc1[C@@H](C)Nc1nnc(C)c2cnc(N3CCC(F)(F)CC3)cc12` [Example 12-34], for which the Ki in assay [1] (setting [2]) was found to be 4.24 nM. Also, in the assay with pERK in MKN1 cells (setting [3]), the IC50 was determined as 51 nM.
For the compound `Cc1cc(F)ccc1[C@@H](C)Nc1nnc(C)c2cnc(N3CC(C)(O)C3)cc12` [Example 12-57], the Ki in assay [1] (setting [2]) was determined as 92.2 nM. For the same compound, the IC50 in the assay on pERK in MKN1 cells (setting [3]) was determined as 1860 nM.
Regarding `Cc1c([C@@H](C)Nc2nnc(C)c3ccc(N4CCC(C)(N(C)C)CC4)cc23)cccc1C(F)(F)F` [Example 10-42, (R)-7-(4-(dimethylamino)-4-methylpiperidin-1-yl)-4-methyl-N-(1-(2-methyl-3-(trifluoromethyl)phenyl)ethyl)phthalazin-1-amine hydrochloride salt], in assay [1], the Ki worked out at 0.31 nM. Also, in the assay with pERK in MKN1 cells (MKN-1), the IC50 was 43 nM.
On to `Cc1nnc(N[C@H](C)c2cc(N)cc(C(F)(F)F)n2)c2cc(N3CC4CC(C3)O4)ccc12` [Example 16-4, N-((R)-1-(4-amino-6-(trifluoromethyl)pyridin-2-yl)ethyl)-7-(6-oxa-3-azabicyclo[3.1.1]heptan-3-yl)-4-methylphthalazin-1-amine], for which the Ki in assay [1] (setting [2]) amounted to 10.4 nM. Further, in the assay with pERK in MKN1 cells (setting [3]), the IC50 turned out to be 371 nM.

By Ki is commonly meant the equilibrium dissociation constant of an inhibitor or competing ligand from its target. For orientation: IC50 means the point on the concentration scale where inhibition reaches its midpoint.

(Values after patent US11702418B2, “SOS1 inhibitors” (priority 2019, dated 2023).)
